What all share (format): in vivo
The subject of one assay is Lucilia cuprina. The assay is described as follows: Lucilia cuprina test. As to conditions: 48 h, application rate 100 ppm, L1 larvae, kill after 2 days, read-out: efficacy. On the procedure:
Solvent: dimethyl sulfoxide To produce a suitable active ingredient formulation, 10 mg of active ingredient are mixed with 0.5 ml of dimethyl sulfoxide, and the concentrate is diluted with water to the desired concentration. About 20 L1 larvae of the Australian sheep blowfly (Lucilia cuprina) are transferred into a test vessel containing minced horsemeat and the active ingredient formulation of the desired concentration. After 2 days, the kill in % is determined. 100% means that all the larvae have been killed; 0% means that no larvae have been killed.

The subject of assay [1] is Myzus persicae. The assay can be described thus: Myzus persicae spray test. As to conditions: foliar, 120 h, application rate 100 g/ha, Chinese cabbage leaf discs, after 5 days, read-out: efficacy. In short, it runs like this:
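Chinese cabbage leaf discs infested with all aphid stages sprayed with compound formulated in emulsifier-containing water (1000 ppm emulsifier). Efficacy (% aphids killed; 100% = all killed) determined after 5 days.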

Assay [2] has as its system Ctenocephalides felis. The assay is described as follows: Ctenocephalides felis oral test. The following applies: 48 h, application rate 100 ppm in citrated cattle blood, kill after 2 days, read-out: efficacy. On the procedure:
Solvent: dimethyl sulfoxide To produce a suitable active ingredient formulation, 10 mg of active ingredient are mixed with 0.5 ml of dimethyl sulfoxide. Dilution with citrated cattle blood gives the desired concentration. About 20 unfed adult cat fleas (Ctenocephalides felis) are placed into a chamber which is closed at the top and bottom with gauze. A metal cylinder whose bottom end is closed with parafilm is placed onto the chamber. The cylinder contains the blood/active ingredient formulation, which can be imbibed by the fleas through the parafilm membrane. After 2 days, the kill in % is determined. 100% means that all of the fleas have been killed; 0% means that none of the fleas have been killed.

In assay [3] the test system is Myzus persicae. The assay is described as follows: Myzus persicae oral test. As to conditions: 120 h, application rate 4 ppm, after 5 days, read-out: efficacy. In a few lines: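 Compound formulation diluted with IPL41 insect medium (33%+15% sugar) and sealed under parafilm; mixed-population aphids feed through the membrane from a second plate. Mortality scored after 5 days as % efficacy (100% = all aphids killed, 0% = none).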

For assay [4], the system named is Ctenocephalides felis. The assay can be described thus: Ctenocephalides felis in vitro contact test with adult cat fleas. As to conditions: application rate 5 μg/cm^2 (=500 g/ha), adult cat fleas dead or moribund after 48 h, read-out: efficacy. As to the method:
For the coating of the test tubes, 9 mg of active ingredient are first dissolved in 1 ml of acetone p.a. and then diluted to the desired concentration with acetone p.a. 250 μl of the solution are distributed homogeneously on the inner walls and the base of a 25 ml glass tube by turning and rocking on an orbital shaker (rocking rotation at 30 rpm for 2 h). With 900 ppm of active ingredient solution and internal surface area 44.7 cm^2, given homogeneous distribution, an area-based dose of 5 μg/cm^2 is achieved. After the solvent has evaporated off, the tubes are populated with 5-10 adult cat fleas (Ctenocephalides felis), sealed with a perforated plastic lid and incubated in a horizontal position at room temperature and ambient humidity. After 48 h, efficacy is determined. To this end, the tubes are stood upright and the fleas are knocked to the base of the tube. Fleas which remain motionless at the base or move in an uncoordinated manner are considered to be dead or moribund. […] 100% efficacy means that all the fleas were dead or moribund. 0% efficacy means that no fleas were harmed.

In another assay the test system is Spodoptera frugiperda. The assay can be described thus: Spodoptera frugiperda spray test. The following applies: foliar, 168 h, application rate 100 g/ha, maize leaf discs, caterpillars, after 7 days, read-out: efficacy. In short, it runs like this: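 Maize leaf discs sprayed with compound formulated in solvent plus water with 1000 ppm emulsifier, dried, then infested with fall armyworm caterpillars. Mortality scored after 7 days as % efficacy (100% = all caterpillars killed, 0% = none).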

The subject of a further assay is Phaedon cochleariae. The assay can be described thus: Phaedon cochleariae spray test. As to conditions: 168 h, application rate 100 g/ha, larvae, after 7 days, read-out: efficacy. In a few lines: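 Chinese cabbage leaf discs sprayed with compound formulated in solvent and water containing 1000 ppm emulsifier. Once dry, discs were populated with mustard beetle larvae. Percent kill scored after 7 days, 100% meaning all larvae dead and 0% none.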

The subject of a further assay is Musca domestica. The assay is described as follows: Musca domestica test. As to conditions: application rate 100 ppm; adult houseflies, kill after 2 days. On the procedure: Solvent: dimethyl sulfoxide To produce a suitable active ingredient formulation, 10 mg of active ingredient are mixed with 0.5 ml of dimethyl sulfoxide, and the concentrate is diluted with water to the desired concentration. Vessels containing a sponge treated with sugar solution and the desired concentration of active ingredient formulation are populated with 10 adult houseflies (Musca domestica). After 2 days, the kill in % is determined. 100% means that all of the flies have been killed; 0% means that none of the flies have been killed.

With `CCS(=O)(=O)c1c(-c2nc3cc(C(F)(F)F)ncc3n2C)nc(/C=C/C2CC2)n1C` [Example I-007, 2-{2-[(E)-2-Cyclopropylvinyl]-5-(ethylsulfonyl)-1-methyl-1H-imidazol-4-yl}-3-methyl-6-(trifluoromethyl)-3H-imidazo[4,5-c]pyridine], the values for the pest or weed control at 100 ppm with Lucilia cuprina and in the assay on Ctenocephalides felis [2] were 100% and 95%, respectively. The figures for the pest or weed control at 100 g/ha with Myzus persicae [1], in the assay on Spodoptera frugiperda and in the assay on Phaedon cochleariae were 90%, 100% and 100%, respectively. Further, the pest or weed control at 4 ppm in the assay on Myzus persicae [3] turned out to be 100%. In addition, in the assay on Ctenocephalides felis [4], the pest or weed control at 5 µg/cm2, 500 g/ha was 100%.

Take `CCn1c(Cl)nc(-c2nc3cc(C(F)(F)F)ncc3n2C)c1S(=O)(=O)CC` [Example I-011]: the pest or weed control at 100 ppm in the assay with Lucilia cuprina and in the assay with Ctenocephalides felis [2] was 100% throughout. Also, the pest or weed control at 100 g/ha in the assay on Myzus persicae [1], in the assay with Spodoptera frugiperda and in the assay on Phaedon cochleariae was 100% throughout. Also, the pest or weed control at 4 ppm with Myzus persicae [3] is 100%. Moreover, in the assay on Ctenocephalides felis [4], the pest or weed control at 5 µg/cm2, 500 g/ha amounted to 100%.

For `CCS(=O)(=O)c1c(-c2nc3cc(C(F)(F)F)ncc3n2C)nc(-c2ccc(Cl)cn2)n1C` [Example I-015], the pest or weed control at 100 ppm with Lucilia cuprina and with Ctenocephalides felis [2] was 100% in each case. The pest or weed control at 100 g/ha in the assay with Myzus persicae [1] is 90%; in the assay on Spodoptera frugiperda it was 100%; in the assay with Phaedon cochleariae it was 100%. For the same compound, the pest or weed control at 4 ppm with Myzus persicae [3] was 100%. For the same compound, the pest or weed control at 5 µg/cm2, 500 g/ha in the assay on Ctenocephalides felis [4] came out at 100%.

For `CCS(=O)(=O)c1c(-c2nc3cc(C(F)(F)F)ncc3n2C)nc(-c2cccnc2F)n1C` [Example I-020], the pest or weed control at 100 ppm in the assay with Lucilia cuprina and in the assay on Ctenocephalides felis [2] was 100% each time. Besides, the values for the pest or weed control at 100 g/ha in the assay on Myzus persicae [1], in the assay with Spodoptera frugiperda and in the assay with Phaedon cochleariae were 100%, 83% and 100%, respectively. The pest or weed control at 4 ppm in the assay on Myzus persicae [3] was 100%. Further, the pest or weed control at 5 µg/cm2, 500 g/ha in the assay on Ctenocephalides felis [4] came to 100%.

For the compound `CCS(=O)(=O)c1c(-c2nc3cc(C(F)(F)F)ncc3n2C)nc(-c2ccncc2F)n1C` [Example I-022], the pest or weed control at 100 ppm with Lucilia cuprina came to 100%; in the assay with Ctenocephalides felis [2], 95%. Further, the pest or weed control at 100 g/ha in the assay on Myzus persicae [1] and with Phaedon cochleariae was 100% throughout. In addition, in the assay with Myzus persicae [3], the pest or weed control at 4 ppm turned out to be 100%. Further, in the assay with Ctenocephalides felis [4], the pest or weed control at 5 µg/cm2, 500 g/ha stood at 100%.

For the compound `CCS(=O)(=O)c1c(-c2nc3cc(C(F)(F)F)ncc3n2C)nc(-c2cncnc2)n1C` [Example I-023], the pest or weed control at 100 ppm with Lucilia cuprina and in the assay with Ctenocephalides felis [2] was 100% each time. The pest or weed control at 100 g/ha with Myzus persicae [1] and in the assay with Phaedon cochleariae was 100% in each case. The pest or weed control at 4 ppm with Myzus persicae [3] stood at 100%. For the same compound, in the assay on Ctenocephalides felis [4], the pest or weed control at 5 µg/cm2, 500 g/ha was found to be 100%.

For the compound `CCS(=O)(=O)c1c(-c2nc3cc(C(F)(F)F)ncc3n2C)nc(-c2cc(Cl)cs2)n1C` [Example I-033], the pest or weed control at 100 ppm in the assay with Lucilia cuprina and in the assay with Ctenocephalides felis [2] was 100% throughout. The results for the pest or weed control at 100 g/ha with Myzus persicae [1] and in the assay with Spodoptera frugiperda were 90% and 100%, respectively. Besides, the pest or weed control at 4 ppm in the assay on Myzus persicae [3] was found to be 100%. Moreover, in the assay on Musca domestica, the efficacy is on record as 90%.

The values are drawn from patent publication US11083199B2, “Heterocycle derivatives as pesticides” (Bayer Aktiengesellschaft, priority 2017, dated 2021).
